Laboratory results: US20250221947A1, “METHODS FOR TREATING A CORONAVIRUS INFECTION USING VALPROIC ACID AND DOCOSAHEXAENOIC ACID” (priority 2024, published 2025)
“And” between values parts separate entries of the source, which are not always exact repeats. Equal values may be shown once. “Also recorded” adds a separate entry of the source. Read-outs that look alike come from different tables or passages of the source.

How the values were obtained:
HCoV-229E [1] = experiment: HCoV-229E viral replication inhibition in MRC5 cells (antibody- or oligonucleotide-based dot blot); format: cell-based, human coronavirus HCoV-229E; details: for inhibition of HCoV-229E viral replication, agent alone: MRC5, MOI 0.1, 48 hours drug, antibody-based assay; for IC50: Human coronavirus 229E; for fold reduction of IC50 for inhibition of viral replication by VPA preincubation: preincubation 24 or 48 hours / at least 24 hours prior to infection
SARS-CoV2 [2] = experiment: Optum dataset case-control analysis: COVID-19 positivity by nucleic acid testing in patients prescribed VPA; format: in vivo; details: patients prescribed VPA vs not, exact-matched multivariate analysis
COVID-19 [3] = experiment: Optum retrospective cohort: clinical progression of COVID-19 in patients prescribed or not prescribed VPA; format: in vivo
HDAC2 = HDAC2 (Chlorocebus sabaeus, UniProt A0A0D9RT33); experiment: Direct inhibition of HDAC2 activity in Vero cells; format: cell-based; details: read-out: IC50 of directly inhibiting HDAC2 activity
p21 = p21 induction time course in Vero cells; format: cell-based; details: 2.55 mM VPA
HCoV-229E [4] = experiment: Viral RNA as % of total RNA by RNAseq in MRC5 cells infected with HCoV-229E; format: cell-based, human coronavirus HCoV-229E; details: drug added after 1 hour viral incubation, 48 hours; VPA 0.1 or 0.5 mM, DHA 25 μM
MRC5 cells = experiment: VPA time course RNAseq in MRC5 cells, SARS-CoV2 interacting (Gordon) gene set; format: cell-based, Homo sapiens
SARS-CoV2 [5] = experiment: SARS-CoV2 replication in MRC5 cells, viral RNA by qRT-PCR; format: cell-based
COVID-19 [6] = details: therapeutic VPA cohort; serum levels for 442 of 691 patients; cited from earlier work
COVID-19 [7] = details: 165 VPA-treated patients admitted for COVID-19; cited from earlier work
SARS-CoV2 [8] = details: dose range of VPA (M range) less than the IC50 of HDAC2 inhibition; cited from earlier work
[9] = in vivo; cited from earlier work
[10] = use in pregnant women; cited from earlier work
[11] = Serum VPA levels in a national data set (LabCorp)
[12] = COVID-19 infected patients exposed to VPA, propensity-matched or multivariate-adjusted model
[13] = patients on VPA tested by LabCorp, 2021

Chain of HDAC2 (A0A0D9RT33 1-488): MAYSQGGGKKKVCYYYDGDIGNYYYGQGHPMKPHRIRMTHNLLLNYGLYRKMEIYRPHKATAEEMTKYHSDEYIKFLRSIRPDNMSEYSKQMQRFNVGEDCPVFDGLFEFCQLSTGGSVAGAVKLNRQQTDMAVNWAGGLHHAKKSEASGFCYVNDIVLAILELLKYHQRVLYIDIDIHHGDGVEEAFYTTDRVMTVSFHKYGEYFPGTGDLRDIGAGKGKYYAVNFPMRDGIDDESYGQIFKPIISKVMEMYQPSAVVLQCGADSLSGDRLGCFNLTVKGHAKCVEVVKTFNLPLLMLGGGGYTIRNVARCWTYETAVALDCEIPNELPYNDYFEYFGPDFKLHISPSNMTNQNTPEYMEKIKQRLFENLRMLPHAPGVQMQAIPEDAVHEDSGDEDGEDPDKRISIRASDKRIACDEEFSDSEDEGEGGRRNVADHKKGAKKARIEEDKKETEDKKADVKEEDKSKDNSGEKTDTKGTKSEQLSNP

CC/C=C\C/C=C\C/C=C\CCCCCCCC(=O)O [ALA, alpha-linolenic acid]
inhibition of HCoV-229E viral replication, agent alone (HCoV-229E [1]): least impact; also recorded: least inhibition

CCCCC/C=C\C/C=C\CCCCCCCC(=O)O [LA, linoleic acid]
inhibition of HCoV-229E viral replication, agent alone (HCoV-229E [1]): substantial inhibitory effect; also recorded: significant inhibition of viral replication

CC(/C=C/C(=O)NO)=C\[C@@H](C)C(=O)c1ccc(N(C)C)cc1 [Trichostatin A, trichostatin A]
inhibition of HCoV-229E viral replication, agent alone (HCoV-229E [1]): did not significantly inhibit viral replication | inhibition of viral replication in combination with DHA (HCoV-229E [1]; with 25 μM DHA): inhibition across the board; also recorded: augmented at the very highest dose of Trichostatin A tested

CCCC(CCC)C(=O)O [VPA, valproic acid]
decreased risk of contracting COVID-19 / reduction in COVID-19 positive testing (SARS-CoV2 [2]): 25% | reduction in ER visits (COVID-19 [3]; [12]): 12-15% | reduction in ICU admissions (COVID-19 [3]; [12]): 14-16% | reduction in hospital admission (COVID-19 [3]; [12]): 17-45% | reduction in mechanical ventilation (COVID-19 [3]; [12]): 33-39% | protective effect against emergency room visits (COVID-19 [3]; univariate (unadjusted) logistic regression): no protective effect against emergency room visits | IC50 (HDAC2): ≥ 2500 µM | time of earliest p21 induction (p21): 24 h | time of maximal p21 induction (p21): 72 h | IC50 (HCoV-229E [1]; MRC5, HCoV-229E, no preincubation, read-out: IC50 in conventional coronavirus replication assay): ~5000 µM | IC50 (HCoV-229E [1]; MRC5, HCoV-229E, no preincubation, read-out: IC50 in conventional coronavirus replication assay, translated): > 720 µg/mL | IC50 (HCoV-229E [1]; MRC5, read-out: IC50 for inhibition of viral replication, MRC5 incubated with valproic acid at least 24 hours prior to infection): ~600 µM | IC50 (HCoV-229E [1]; MRC5, read-out: IC50 for inhibition of viral replication, corresponding serum level, MRC5 incubated with valproic acid at least 24 hours prior to infection): 85 µg/mL | dose required for antiviral activity (HCoV-229E [1]; VPA used alone, in vitro testing): > 0.6 mM | dose requirement of VPA for antiviral activity in combination with DHA (HCoV-229E [1]; combination of DHA and VPA in vitro (FIG. 4B)): 0.1 mM | fold reduction of IC50 for inhibition of viral replication by VPA preincubation (HCoV-229E [1]): more than 3 fold | fold reduction of IC50 for inhibition of viral replication by VPA preincubation (HCoV-229E [1]; listed as valproic acid): ~10 fold | effect on viral replication (viral RNA as % of total RNA) (HCoV-229E [4]): not significantly impacted | expression of viral pathogenicity and replication genes (Gordon gene set) (MRC5 cells; MRC5 cells, VPA 24 and 48 hours): down-regulated preferentially | time before gene expression profile changes can be detected (MRC5 cells; coronavirus permissive cell lines, VPA time course): at least 24 hours | time of maximal gene expression profile changes (MRC5 cells; coronavirus permissive cell lines, VPA time course, in some cases): 72 to 96 h | reduction by 24 hours preincubation (SARS-CoV2 [5]; 24 hours preincubation vs none): more than 50% | inhibitory activity against SARS-CoV2 (SARS-CoV2 [5]; MRC5, MOI 0.1, VPA 0.5 mM, DHA 25 μM): substantial inhibitory activity | effect of (additional) preincubation (SARS-CoV2 [5]; VPA: additional preincubation up to 5 days, DHA: preincubation): did not provide any additional effects | % viral RNA detected compared to control MRC5 cells without drug (SARS-CoV2 [5]; preincubation by 24 hours): less than 10% | % viral RNA detected compared to control MRC5 cells without drug (SARS-CoV2 [5]; without preincubation): 20% | OR for contracting COVID-19 (COVID-19 [6]): 0.218 | clinical course vs matched controls (COVID-19 [7]): shorter duration of symptoms, lower in-hospital respiratory worsening, lower ICU admissions, and fewer pulmonary infiltrates | mortality vs matched controls (COVID-19 [7]): not statistically different | inhibition of viral infection (SARS-CoV2 [8]): no measurable inhibition of viral infection | target serum concentrations for seizure disorder [9]: 50 to 100 µg/mL | elevation of the risk of certain birth defects [10]: roughly three-fold | share of samples testing 79 μg/mL or higher ([11]; LabCorp, second quarter of 2021): 25% | serum VPA level, mean [11, 13]: 56.7 µg/mL and 56.65 µg/mL | serum VPA level, median [11, 13]: 59.0 µg/mL and 59 µg/mL

C/C=C1\NC(=O)[C@H]2CSSCC/C=C/[C@H](CC(=O)N[C@H](C(C)C)C(=O)N2)OC(=O)[C@H](C(C)C)NC1=O [depsipeptide]
IC50 (HCoV-229E [1]; MRC5, read-out: IC50 of inhibition of viral replication, with 25 μM DHA): 0.0001 µM | IC50 (HCoV-229E [1]; MRC5, read-out: IC50 of inhibition of viral replication, without DHA): 0.0008 µM | inhibition of HCoV-229E viral replication, agent alone (HCoV-229E [1]): significant inhibition of viral replication
